Measured values reported in publication PMC3631420 (Science translational medicine, 2012).

T1: GST-β-catenin (human, UniProt P35222 1-781)
T1 sequence (looked up): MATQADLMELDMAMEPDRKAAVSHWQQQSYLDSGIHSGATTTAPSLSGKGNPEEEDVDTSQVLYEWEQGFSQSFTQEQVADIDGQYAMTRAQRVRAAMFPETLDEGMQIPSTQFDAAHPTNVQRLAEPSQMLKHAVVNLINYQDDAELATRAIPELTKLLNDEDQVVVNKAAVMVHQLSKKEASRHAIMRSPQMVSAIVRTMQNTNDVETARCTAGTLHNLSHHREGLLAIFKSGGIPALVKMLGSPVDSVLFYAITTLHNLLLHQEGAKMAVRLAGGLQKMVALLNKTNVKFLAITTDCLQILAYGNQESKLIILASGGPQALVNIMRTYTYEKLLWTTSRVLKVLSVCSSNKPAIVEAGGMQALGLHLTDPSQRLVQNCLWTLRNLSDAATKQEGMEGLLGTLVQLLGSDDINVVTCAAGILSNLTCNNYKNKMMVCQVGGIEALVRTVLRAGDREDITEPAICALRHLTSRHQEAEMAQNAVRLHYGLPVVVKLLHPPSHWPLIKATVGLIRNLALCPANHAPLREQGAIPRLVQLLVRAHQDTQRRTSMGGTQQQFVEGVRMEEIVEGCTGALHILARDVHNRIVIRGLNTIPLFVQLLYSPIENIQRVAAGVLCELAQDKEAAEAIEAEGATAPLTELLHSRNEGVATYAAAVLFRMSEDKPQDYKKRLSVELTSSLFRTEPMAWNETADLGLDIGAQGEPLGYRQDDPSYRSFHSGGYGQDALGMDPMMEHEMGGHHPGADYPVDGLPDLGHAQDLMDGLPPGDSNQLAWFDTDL


Tests used:
[1] = cited from earlier work
CRC and MM = settings: cited from earlier work
[2] = tested on: β-catenin/TCF interaction; settings: cited from earlier work
GST-β-catenin = molecular target: T1, GST-β-catenin; test: pull-down

Row | Molecule | toxicity in treated mice [1] | growth of CRC and MM (CRC and MM) | Wnt-specific transcriptional activity [2] | binding result (GST-β-catenin)
1 | PKF115-584 | induced severe bone marrow hypoplasia, anemia, and generalized wasting | reduced the growth | blocked Wnt-specific transcriptional activity | 
2 | His-BCL9 (residues 243–469) (domain or fragment, human, UniProt O00512 243-469, looked up) NQDQNSSQNTRLQPTPPIPAPAPKPAAPPRPLDRESPGVENKLIPSVGSPASSTPLPPDGTGPNSTPNNRAVTPVSQGSNSSSADPKAPPPPPVSSGEPPTLGENPDGLSQEQLEHRERSLQTLRDIQRMLFPDEKEFTGAQSGGPQQNPGVLDGPQKKPEGPIQAMMAQSQSLGKGPGPRTDVGAPFGPQGHRDVPFSPDEMVPPSMNSQSGTIGPDHLDHMTPEQ |  |  |  | binds
